Source: patent US20060246095A1, “Multiepitope polypeptides for cancer immunotherapy” (HADASIT MEDICAL RESEARCH SERVICES & DEVELOPMENT LTD., priority 2003, published 2006)

Experiments:
HHD mice = details: HLA-A2.1-restricted; cited from earlier work
MHC = details: cited from earlier work
[1] = tested on: CTLs in blood lymphocytes of breast carcinoma patients; details: personal communications; cited from earlier work
[2] = tested on: T cell clone CK3H6 (A2 restricted gp100 epitope 209-217); experiment: Recognition assay for peptide presentation by DC (IFN-γ release ELISA), T cell clone CK3H6; assay type: cell-based, human
Method: (§1) Dendritic cells were isolated from cytopheresis MNCs of melanoma patients with the HLA haplotypes HIA-A*0201 and HLA-DRβ1*0401. DC were generated from plastic adherent PBMCs cultured in RPMI with 10% human AB-serum, L-glutamine, penicillin-streptomycin, supplemented with GM-CSF 1000 IU/ml and IL-4 1000 IU/ml. By day 6, immature DC were harvested for electroporation.
(§2) 2.5-3×10^6 DC were re-suspended in 100 μl nucleofector solution and added to 5 μg of DNA plasmid in 2-mm electrode gap cuvettes. Transfected DC were immediately plated with CM containing GM/IL4 or let mature using TNFα 100 ng/ml and PGE2 1000 ng/ml. GFP-transfected DCs were collected 16-24 hours later for FACS analysis.
(§3) DC were pulsed with 1 μg/ml of the relevant peptides at 1×10^6 cells/ml. Stimulants were added after 1 hour incubation without washing the peptide.
CK3H6 which recognizes the A2 restricted gp100 epitope 209-217.
(§4) T cell clones were co-incubated with DC in flat 96-well plate for 24 hours. DC were plated immediately after their transfection or pulsing in 6 separated plates, in the presence of GM CSF and IL-4. 1×10^5 T cells were added to 1×10^5 pulsed or transfected DC. In the longitudinal study, T cell clones were added to the transfected/pulsed DC at the following time points: T0=immediately, +12=after 12 hours, 24, 36, 48 and 72 hours. Supernatants were collected after overnight incubation. Interferon gamma release assay was performed to evaluate T cell stimulation using the ELISA method, results are presented in pg/ml.
(§5) Lactacystin was added to DC at concentrations of 25 μM and 50 μM, 4 hours post transfection. DC were incubated with lactacystin for 70 minutes and then washed twice.
(§6) Responding T cells were added after washing the lactacystin and co-incubated. Supernatents were collected after 20 hours.
(§7) For recognition assay of DC epitope presentation, 1×10^5 cells from different T cell clones, that were grown from PBMCs of patients, and were restricted to particular melanoma antigen peptides, were co-incubated with 1×10^5 pulsed or transfected DC, in the presence of GM-CSF and IL-4. T cell clones were added to the transfected/pulsed DC at the following time points: T=0 immediately, T=12, 24, 36, 48, 72 hours. Supernatant was collected after overnight incubation and was subjected to interferon gamma release assay, in order to evaluate the specific T cell activity towards the particular peptide presented by the DC cells.
(§8) The results shown in the following tables represent the amount of Interferon-γ (pg/ml) secreted to the culture medium as an index for T cell stimulation.

[3] = tested on: TIL 1383 (A2 restricted tyrosinase epitope 369-377); experiment: Recognition assay for peptide presentation by DC (IFN-γ release ELISA), TIL 1383; assay type: cell-based, human; details: control plate; peptide-pulsed DC; TIL 1383
Method: as §1, §2, §3
TIL 1383 which recognizes the A2 restricted tyrosinase epitope 369-377.
as §4, §5, §6, §7, §8

[4] = tested on: T cell clone BR-B8 (DR4-restricted gp100 epitope 44-59); experiment: Recognition assay for peptide presentation by DC (IFN-γ release ELISA), clone BR-B8; assay type: cell-based, human; details: control plate; peptide-pulsed DC; clone BR-B8
Method: as §1, §2
pcDNA-MEP and pcDNA-gp100 were co-transfected to detect Class II antigen presentation as an internal control.
BR-B8 which recognizes the DR4-restricted gp100 epitope 44-59.
as §4, §5, §6, §7, §8

[5] = tested on: TIL 1940 (A2 restricted MART-1 epitope 27-35); experiment: Recognition assay for peptide presentation by DC (IFN-γ release ELISA), TIL 1940; assay type: cell-based, human; details: TIL 1940
Method: as §1, §2, §3
TIL 1940 which recognizes the A2 restricted MART-1 epitope 27-35.
as §4, §5, §6, §7, §8

[6] = tested on: T cell clone RB-154 (gp100 154-162 peptide); experiment: Recognition assay for peptide presentation by DC (IFN-γ release ELISA), clone RB-154; assay type: cell-based, human; details: control plate; peptide-pulsed DC; clone RB-154
Method: as §1, §2, §3, §4, §7, §8

[7] = tested on: peripheral blood lymphocytes of breast carcinoma patients; details: cited from earlier work
mice = details: cited from earlier work
[8] = tested on: DC with CM (no T cell clone); experiment: Recognition assay, CM in place of a T cell clone (IFN-γ background of DC); assay type: cell-based, human; details: transfected or peptide-pulsed DC, CM instead of T cell clone
Method: as §1, §2, §3, §4, §7, §8

[9] = control plate, peptide-pulsed DC, T cell clone CK3H6
[10] = control plate, peptide-pulsed DC

MHC, sequence (P61769 21-119): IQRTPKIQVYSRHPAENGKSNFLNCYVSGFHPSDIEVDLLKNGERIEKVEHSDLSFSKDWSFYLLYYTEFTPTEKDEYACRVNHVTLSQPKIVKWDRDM

## MUC1/A7: peptide A7 (NLTISDVSV) of MUC1, SEQ ID NO: 26 (listed as Homo sapiens)
HHD mice
  CTL induced upon vaccination, lysis of human carcinoma lines: effectively lysed the human carcinoma lines
MHC
  MHC-binding affinity: high
[1]
  activation of CTLs in blood lymphocytes, patients responding: 2/4

## TYR 369-377: peptide 369-377 derived from Tyrosinase, SEQ ID NO: 17
[2]; [9]
  Interferon-γ secreted to the culture medium: 1 pg/mL
[3]
  Interferon-γ secreted to the culture medium: 69 pg/mL
[4]
  Interferon-γ secreted to the culture medium: 1 pg/mL
[5]; [10]
  Interferon-γ secreted to the culture medium: 1 pg/mL
[6]
  Interferon-γ secreted to the culture medium: 0 pg/mL

## BA46-6: peptide BA46-6 (NLFETPVEA) of Lactadherin, SEQ ID NO: 27 (listed as Homo sapiens)
[7]
  specific CTL activity: elicited specific CTL activity
mice
  specific CTL activity: elicited specific CTL activity

## gp 100 209-217: peptide 209-217 of gp100, SEQ ID NO: 16
[2]; [9]
  Interferon-γ secreted to the culture medium: >2000 pg/mL
[2]; transfected or peptide-pulsed DC, Donor 1, T = 12 hours, CK3H6
  Interferon-γ secreted to the culture medium: >2000 pg/mL
[2]; transfected or peptide-pulsed DC, Donor 1, T = 24 hours, CK3H6
  Interferon-γ secreted to the culture medium: 31 pg/mL
[2]; transfected or peptide-pulsed DC, Donor 1, T = 36 hours, CK3H6
  Interferon-γ secreted to the culture medium: 12 pg/mL
[2]; transfected or peptide-pulsed DC, Donor 1, T = 48 hours, CK3H6
  Interferon-γ secreted to the culture medium: 0 pg/mL
[2]; transfected or peptide-pulsed DC, Donor 1, T = 72 hours, CK3H6
  Interferon-γ secreted to the culture medium: 0 pg/mL
[2]; transfected or peptide-pulsed DC, Donor 2, T = 12 hours, CK3H6
  Interferon-γ secreted to the culture medium: >2000 pg/mL
[2]; transfected or peptide-pulsed DC, Donor 2, T = 24 hours, CK3H6
  Interferon-γ secreted to the culture medium: 18 pg/mL
[2]; transfected or peptide-pulsed DC, Donor 2, T = 36 hours, CK3H6
  Interferon-γ secreted to the culture medium: 11 pg/mL
[2]; transfected or peptide-pulsed DC, Donor 2, T = 48 hours, CK3H6
  Interferon-γ secreted to the culture medium: 0 pg/mL
[2]; transfected or peptide-pulsed DC, Donor 2, T = 72 hours, CK3H6
  Interferon-γ secreted to the culture medium: 0 pg/mL
[8]; Donor 1, T = 12 hours
  Interferon-γ secreted to the culture medium: 9 pg/mL
[8]; Donor 1, T = 48 hours
  Interferon-γ secreted to the culture medium: 0 pg/mL
[8]; Donor 1, T = 72 hours
  Interferon-γ secreted to the culture medium: 0 pg/mL
[8]; Donor 2, T = 12 hours
  Interferon-γ secreted to the culture medium: 8 pg/mL
[8]; Donor 2, T = 24 hours
  Interferon-γ secreted to the culture medium: 6 pg/mL
[8]; Donor 2, T = 36 hours
  Interferon-γ secreted to the culture medium: 8 pg/mL
[8]; Donor 2, T = 48 hours
  Interferon-γ secreted to the culture medium: 0 pg/mL
[8]; Donor 2, T = 72 hours
  Interferon-γ secreted to the culture medium: 0 pg/mL
[3]
  Interferon-γ secreted to the culture medium: 1 pg/mL
[4]
  Interferon-γ secreted to the culture medium: 1 pg/mL
[5]; [10]
  Interferon-γ secreted to the culture medium: 1 pg/mL
[5]; transfected or peptide-pulsed DC, Donor 1, T = 12 hours
  Interferon-γ secreted to the culture medium: 10 pg/mL
[5]; transfected or peptide-pulsed DC, Donor 1, T = 24 hours
  Interferon-γ secreted to the culture medium: 1 pg/mL
[5]; transfected or peptide-pulsed DC, Donor 1, T = 36 hours
  Interferon-γ secreted to the culture medium: 13 pg/mL
[5]; transfected or peptide-pulsed DC, Donor 1, T = 48 hours
  Interferon-γ secreted to the culture medium: 0 pg/mL
[5]; transfected or peptide-pulsed DC, Donor 1, T = 72 hours
  Interferon-γ secreted to the culture medium: 0 pg/mL
[5]; transfected or peptide-pulsed DC, Donor 2, T = 12 hours
  Interferon-γ secreted to the culture medium: 12 pg/mL
[5]; transfected or peptide-pulsed DC, Donor 2, T = 24 hours
  Interferon-γ secreted to the culture medium: 6 pg/mL
[5]; transfected or peptide-pulsed DC, Donor 2, T = 36 hours
  Interferon-γ secreted to the culture medium: 7 pg/mL
[5]; transfected or peptide-pulsed DC, Donor 2, T = 48 hours
  Interferon-γ secreted to the culture medium: 0 pg/mL
[5]; transfected or peptide-pulsed DC, Donor 2, T = 72 hours
  Interferon-γ secreted to the culture medium: 0 pg/mL
[6]
  Interferon-γ secreted to the culture medium: 1 pg/mL

## BA46-7: peptide BA46-7 (GLQHWVPEL) of Lactadherin, SEQ ID NO: 28 (listed as Homo sapiens)
[7]
  specific CTL activity: elicited specific CTL activity
mice
  specific CTL activity: elicited specific CTL activity
